Like-named read-outs stand apart in the source and are kept apart here. Values belong to the compound of their own block, whether it stands above or below them.
Key:
mouse P2X1 receptor = target: T1, mouse P2X1 receptor (Mus musculus, UniProt P51576); test: Two-electrode voltage clamp, ATP-induced ion current in Xenopus oocytes expressing mouse P2X1; type: cell-based; conditions: for inhibition at 10 µM / inhibition at 0.1 µM: read-out: % inhibition mP2X1; for antagonistic activity, mouse P2X1 versus human P2X3: comparison of the two receptors
T1 construct: EST clones containing full-length cDNAs of mouse P2X1 (clone ID: 4189541) and human P2X7 receptor (clone ID: 5286944); host or cells: Xenopus oocytes (cRNA injected)
T1 sequence (P51576 1-399): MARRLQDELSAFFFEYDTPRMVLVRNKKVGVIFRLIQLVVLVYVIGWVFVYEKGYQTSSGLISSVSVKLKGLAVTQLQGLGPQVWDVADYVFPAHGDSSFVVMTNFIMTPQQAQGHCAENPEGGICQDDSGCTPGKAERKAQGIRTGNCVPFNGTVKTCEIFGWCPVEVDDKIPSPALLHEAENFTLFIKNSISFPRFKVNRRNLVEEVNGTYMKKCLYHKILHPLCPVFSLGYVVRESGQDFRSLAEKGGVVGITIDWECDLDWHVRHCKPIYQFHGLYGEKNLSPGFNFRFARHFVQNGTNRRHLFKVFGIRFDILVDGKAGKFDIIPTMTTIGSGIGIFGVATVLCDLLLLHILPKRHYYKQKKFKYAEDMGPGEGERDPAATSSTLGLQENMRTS
Protocol: 1-1. Antagonistic Activity at Recombinant Mouse P2X1 and Human P2X3 Receptors
(§1) Xenopus oocytes were harvested and prepared with method as previously described in publications. Defolliculated oocytes were injected cytosolically with mouse P2X1 and human P2X3 receptor cRNA ([…], 1 μg/mL), respectively, incubated for 24 hrs at 18° C. in Barth's solution and kept for up to 12 days at 4° C. until used in electrophysiological experiments. ATP-activated membrane currents (Vh=−70 mV) were recorded from cRNA-injected oocytes using the twin-electrode voltage-clamp technique (Axoclamp 2B amplifier). Voltage recording (1-2 MΩ tip resistance) and current-recording microelectrodes (5 MΩ tip resistance) were filled with 3.0 M KCl. Oocytes were held in an electrophysiological chamber and superfused with Ringer's solution (5 mL/min, at 18° C.) containing (mM) NaCl, 110; KCl, 2.5; HEPES, 5; BaCl2, 1.8, adjusted to pH 7.5. ATP was superfused over the oocytes for 60-120s then washed out for a period of 20 min. For inhibition curves, data were normalized to the current evoked by ATP, at pH 7.5. Test substances were added for 20 min prior to ATP exposure; all peptides were tested for reversibility of their effects. The concentration required to inhibit the ATP response by 50% (IC50) was taken from Hill plots constructed using the formula: log(I/Imax−1), where I is the current evoked by ATP in the presence of an antagonist. Data are presented as mean±SEM (n=4) for the data from different batches of oocytes.

human P2X3 receptor = target: T2, human P2X3 receptor (Homo sapiens, UniProt P56373); test: Two-electrode voltage clamp, ATP-induced ion current in Xenopus oocytes expressing human P2X3; type: cell-based; conditions: for inhibition at 10 µM / inhibition at 0.1 µM: read-out: % inhibition hP2X3; for inhibition at 0.1 µM: 100 nM compound
T2 construct: expressed in transfected cells; host or cells: Xenopus oocytes (cRNA injected); cDNA from the Max-Planck Institute laboratory (Dr. W. Stuhmer and Dr. F. Soto)
T2 sequence (P56373 1-397): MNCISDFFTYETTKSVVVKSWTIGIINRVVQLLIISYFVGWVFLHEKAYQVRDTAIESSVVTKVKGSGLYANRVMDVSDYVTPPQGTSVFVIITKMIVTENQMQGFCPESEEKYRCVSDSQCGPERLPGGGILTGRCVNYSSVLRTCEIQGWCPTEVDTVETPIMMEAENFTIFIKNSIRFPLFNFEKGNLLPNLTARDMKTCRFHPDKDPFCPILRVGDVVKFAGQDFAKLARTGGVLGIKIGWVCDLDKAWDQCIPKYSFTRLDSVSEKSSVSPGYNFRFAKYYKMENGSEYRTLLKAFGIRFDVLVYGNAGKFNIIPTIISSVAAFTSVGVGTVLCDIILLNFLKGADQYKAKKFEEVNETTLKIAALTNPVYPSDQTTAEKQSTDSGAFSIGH
Protocol: Antagonistic Activity at Recombinant Mouse P2X1 and Human P2X3 Receptors
as §1

[1] = Table 1, 10 μM compound, ion current induced by 2 μM ATP, mean ± SEM, n = 4
[2] = Table 1, 100 nM compound, ion current induced by 2 μM ATP, mean ± SEM, n = 4
[3] = concentration-inhibitory curve, 2 μM ATP (FIG. 1B, FIG. 2A)
[4] = concentration-inhibitory curve, 2 μM ATP, read-out: IC50 value (FIG. 1B)
[5] = concentration-response curve, 2 μM ATP, mean of four observations, read-out: IC50 value
[6] = Table 1, ion current induced by 2 μM ATP, mean ± SEM, n = 4
[7] = concentration-inhibitory curve, 2 μM ATP (FIG. 1C, FIG. 2B)
[8] = concentration-inhibitory curve, 2 μM ATP, read-out: IC50 value (FIG. 1C)

inhibition at 10 µM (mouse P2X1 receptor; [1]): 7.4 ± 1.9%
inhibition at 10 µM (human P2X3 receptor; [1]): 9.3 ± 2.3%
Compound: Cc1ncc(C=CC(=O)O)c(C=O)c1O [Compound 17, 3-(4-Formyl-5-hydroxy-6-methylpyridin-3-yl)acrylic acid]

inhibition at 0.1 µM (mouse P2X1 receptor; [2]): 48.5 ± 9.5%
Hill coefficient (mouse P2X1 receptor; [3]): −1.20±0.45
IC50 (mouse P2X1 receptor; [4]): 130 ± 13.6 nM
IC50 (mouse P2X1 receptor; [5]): 130 nM
inhibition at 0.1 µM (human P2X3 receptor; [6]): 56.3 ± 8.8%
Hill coefficient (human P2X3 receptor; [7]): −1.08±0.02
IC50 (human P2X3 receptor; [8]): 79.8 ± 1.21 nM
IC50 (human P2X3 receptor; [5]): 80 nM
Compound: Cc1nc(N=Nc2ccc(C(=O)O)cc2)c(CCC(=O)O)c(C=O)c1O [Compound 28, 4-((3-(2-carboxyethyl)-4-formyl-5-hydroxy-6-methylpyridin-2-yl)diazenyl)benzoic acid]

inhibition at 0.1 µM (mouse P2X1 receptor; [2]): 51.7 ± 7.4%
inhibition at 0.1 µM (human P2X3 receptor; [6]): 25.7 ± 6.9%
Compound: Cc1nc(N=Nc2ccc(C(=O)O)cc2)c(CCC(=O)O)c(C(=O)O)c1O [Compound 29, 3-(2-carboxyethyl)-2-((4-carboxyphenyl)diazenyl)-5-hydroxy-6-methy lisonicotinic acid]
antagonistic activity, mouse P2X1 versus human P2X3 (mouse P2X1 receptor): more powerful antagonistic activity to mouse P2X1 than human P2X3 receptor

Hill coefficient (mouse P2X1 receptor; [3]): −1.13±0.20
Compound: Cc1nc(/N=N/c2ccc(C(=O)O)cc2)c(COP(=O)(O)O)c(C=O)c1O [MRS2159, reference compound]

inhibition at 10 µM (mouse P2X1 receptor; [1]): 14.8 ± 1.7%
inhibition at 10 µM (human P2X3 receptor; [1]): 15.2 ± 7.7%
Compound: Cc1ncc(CCC(=O)O)c(C(=O)O)c1O [Compound 14, 5-(2-Carboxyethyl)-3-hydroxy-2-methyl isonicotinic acid]

% inhibition mP2X1 (mouse P2X1 receptor; [1]): inactive
% inhibition hP2X3 (human P2X3 receptor; [1]): inactive
Compound: Cc1ncc(CN(CCC(=O)O)Cc2ccccc2)c(C=O)c1O [Compound 22, 3-(Benzyl((4-formyl-5-hydroxy-6-methylpyridin-3-yl)methyl)amino)propanoic acid]

inhibition at 0.1 µM (mouse P2X1 receptor; [2]): 58.6 ± 4.5%
Hill coefficient (mouse P2X1 receptor; [3]): −1.13±0.40
IC50 (mouse P2X1 receptor; [4]): 70.5 ± 2.72 nM
IC50 (mouse P2X1 receptor; [5]): 70 nM
inhibition at 0.1 µM (human P2X3 receptor; [6]): 40.1 ± 8.4%
Hill coefficient (human P2X3 receptor; [7]): −1.18±0.25
IC50 (human P2X3 receptor; [8]): 105 ± 17.5 nM
IC50 (human P2X3 receptor; [5]): 105 nM
Compound: Cc1nc(N=Nc2cc(S(=O)(=O)O)ccc2S(=O)(=O)O)c(CCC(=O)O)c(C=O)c1O [Compound 24, 3-(2-((2,5-Disulfophenyl)diazenyl)-4-formyl-5-hydroxy-6-methylpyridin-3-yl)propanoic acid]
inhibitory activity to the ATP-induced ion current (mouse P2X1 receptor; FIG. 1A, 2 μM ATP, two concentrations): concentration-dependent inhibitory activity

% inhibition mP2X1 (mouse P2X1 receptor; [2]): 60.2 ± 4.9%
inhibition at 0.1 µM (mouse P2X1 receptor; [2]): 60%
inhibition at 0.1 µM (human P2X3 receptor; [6]): 45.7 ± 10.8%
Compound: Cc1nc(N=Nc2cc(S(=O)(=O)O)ccc2S(=O)(=O)O)c(CCC(=O)O)c(C(=O)O)c1O [Compound 25, 3-(2-Carboxyethyl)-2-((2,5-disulfophenyl)diazenyl)-5-hydroxy-6-methylisonicotinic acid]
antagonistic activity, mouse P2X1 versus human P2X3 (mouse P2X1 receptor): more powerful antagonistic activity to mouse P2X1 than human P2X3 receptor

Compound: Cc1nc(N=Nc2cc(S(=O)(=O)O)ccc2S(=O)(=O)O)c(COP(=O)(O)O)c(C=O)c1O [Compound 3, pyridoxal-phosphate-6-azophenyl-2′,5′-disulfonic acid, reference compound]
% inhibition mP2X1 (mouse P2X1 receptor): 62.4 ± 3.1%
Hill coefficient (mouse P2X1 receptor): −1.09±0.13
IC50 (mouse P2X1 receptor; read-out: IC50 value (FIG. 1B)): 30.7 ± 5.12 nM
% inhibition hP2X3 (human P2X3 receptor): 48.3 ± 5.6%
Hill coefficient (human P2X3 receptor): −1.11±0.27
IC50 (human P2X3 receptor; read-out: IC50 value (FIG. 1C)): 96.2 ± 21 nM

inhibition at 10 µM (mouse P2X1 receptor; [1]): 19.5 ± 5.1%
inhibition at 10 µM (human P2X3 receptor; [1]): 22.3 ± 8.1%
Compound: Cc1ncc(CCC(=O)O)c(C=O)c1O [Compound 13, 3-(4-formyl-5-hydroxy-6-methylpyridin-3-yl) propanoic acid]

inhibition at 0.1 µM (mouse P2X1 receptor; [2]): 57.6 ± 8.8%
inhibition at 0.1 µM (human P2X3 receptor; [6]): 37.6 ± 6.9%
Compound: Cc1nc(N=Nc2ccc(S(=O)(=O)O)cc2)c(CCC(=O)O)c(C(=O)O)c1O [Compound 27, 3-(2-carboxyethyl)-5-hydroxy-6-methyl-2-((4-sulfophenyl)diazenyl)isonicotinic acid]
antagonistic activity, mouse P2X1 versus human P2X3 (mouse P2X1 receptor): more powerful antagonistic activity to mouse P2X1 than human P2X3 receptor

inhibition at 0.1 µM (mouse P2X1 receptor; [2]): 41.8 ± 9.8%
inhibition at 0.1 µM (human P2X3 receptor; [6]): 46.5 ± 11.2%
Compound: Cc1nc(N=Nc2ccc(S(=O)(=O)O)cc2)c(CCC(=O)O)c(C=O)c1O [Compound 26, 3-(4-Formyl-5-hydroxy-6-methyl-2-((4-sulfophenyl)diazenyl)pyridin-3-yl)propanoic acid]

% inhibition mP2X1 (mouse P2X1 receptor; [1]): inactive
% inhibition hP2X3 (human P2X3 receptor; [1]): inactive
Compound: Cc1ncc(CN(CCC(=O)O)Cc2ccccc2)c(C(=O)O)c1O [Compound 23, 5-((Benzyl(2-carboxyethyl)amino)methyl)-3-hydroxy-2-methylisonicotinic acid]

% inhibition mP2X1 (mouse P2X1 receptor; [1]): inactive
% inhibition hP2X3 (human P2X3 receptor; [1]): inactive
Compound: Cc1ncc(C=CC(=O)O)c(C(=O)O)c1O [Compound 18, 5-(2-Carboxyvinyl)-3-hydroxy-2-methylisonicotinic acid]

Hill coefficient (human P2X3 receptor; [7]): −0.68±0.18
Compound: O=C(O)c1cc(C(=O)O)c(C(=O)N(Cc2cccc(Oc3ccccc3)c2)[C@H]2CCCc3ccccc32)cc1C(=O)O [A-317491, reference compound]

— US9546139B2, “Pyridine carboxylic acid based compound used as a P2X1 and P2X3 receptor antagonist, a production method for the same and a composition comprising the same” (GWANGJU INSTITUTE OF SCIENCE AND TECHNOLOGY, priority 2010, dated 2017)
